Source: the NIST ThermoML archive (doi:10.1016/j.jct.2008.06.008)
Several values for one entry are separate records, joined by “and”; a condition that tells them apart may be missing. Equal entries are not always repeated. ± gives the expanded uncertainty stated by the source.

Test: molar heat capacity at constant pressure
Conditions: 298.15 K; 101.33 kPa; Liquid; Large sample (1 g) DSC

Row | SMILES | molar heat capacity at constant pressure
1 | [2H]C([2H])([2H])C(=O)C([2H])([2H])[2H] [(D6)-2-propanone] | 134.94 ± 2.7 J/K/mol and 133.6 ± 2.7 J/K/mol
2 | c1ccccc1 [benzene] | 133.82 ± 2.7 J/K/mol and 132.11 ± 2.6 J/K/mol
3 | [2H]c1c([2H])c([2H])c([2H])c([2H])c1[2H] [benzene-d6] | 152.18 ± 3 J/K/mol and 149.82 ± 3 J/K/mol
4 | Cc1ccccc1 [toluene] | 154.75 ± 3.1 J/K/mol and 152.53 ± 3 J/K/mol
5 | [2H]C([2H])([2H])O [methanol-d3] | 86.07 ± 1.7 J/K/mol and 84.91 ± 1.7 J/K/mol
6 | [2H]c1c([2H])c([2H])c(C([2H])([2H])[2H])c([2H])c1[2H] [toluene-d8] | 176.77 ± 3.5 J/K/mol and 174.28 ± 3.5 J/K/mol
7 | [2H]C1([2H])C([2H])([2H])C([2H])([2H])C([2H])([2H])C([2H])([2H])C1([2H])[2H] [cyclohexane-d12] | 185.6 ± 3.7 J/K/mol and 182.57 ± 3.6 J/K/mol
8 | [2H]C([2H])([2H])C#N [acetonitrile-d3] | 95.74 ± 1.9 J/K/mol and 95.02 ± 1.9 J/K/mol
9 | CN(C)C=O [dimethylformamide] | 145.78 ± 2.9 J/K/mol and 144.02 ± 2.9 J/K/mol
10 | CO [methanol] | 80.58 ± 1.6 J/K/mol and 79.07 ± 1.6 J/K/mol
11 | [2H]OC([2H])([2H])[2H] [methanol-d4] | 89.03 ± 1.8 J/K/mol and 87.75 ± 1.8 J/K/mol
12 | CC(C)=O [acetone] | 122.74 ± 2.5 J/K/mol and 120.73 ± 2.4 J/K/mol
13 | [2H]C(Cl)(Cl)Cl [chloroform-d] | 114.94 ± 2.3 J/K/mol and 111.98 ± 2.2 J/K/mol
14 | C1CCCCC1 [cyclohexane] | 154.34 ± 3.1 J/K/mol and 150.73 ± 3 J/K/mol
15 | CC#N [acetonitrile] | 89.62 ± 1.8 J/K/mol and 88.57 ± 1.8 J/K/mol
16 | ClCCl [dichloromethane] | 97.97 ± 2 J/K/mol and 95.61 ± 1.9 J/K/mol
17 | C[S+](C)[O-] [dimethyl sulfoxide] | 150.74 ± 3 J/K/mol and 149.05 ± 3 J/K/mol
18 | [2H]C(=O)N(C([2H])([2H])[2H])C([2H])([2H])[2H] [N,N-dimethylformamide-d7] | 160.5 ± 3.2 J/K/mol and 159.47 ± 3.2 J/K/mol
19 | [2H]C([2H])([2H])S(=O)C([2H])([2H])[2H] [(methyl sulfoxide)-d6] | 165.76 ± 3.3 J/K/mol and 163.87 ± 3.3 J/K/mol
20 | ClC(Cl)Cl [trichloromethane] | 112.71 ± 2.2 J/K/mol and 110.74 ± 2.2 J/K/mol
21 | [2H]C([2H])(Cl)Cl [dichloromethane-d2] | 103.08 ± 2.1 J/K/mol and 101.49 ± 2 J/K/mol
